“And” between values parts separate entries of the source, which are not always exact repeats. Equal values may be shown once.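 Test compounds were applied to cells in 96-well plates for 48 hours at 5 doses. Abbreviation: GI50, concentration required for 50% inhibition of growth. The concentration for full growth arrest is given as TGI.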
Experiments:
Assay in all cases: NCI-60 cell line screen, 48 h
[1] = tested on: HT29 colon
[2] = tested on: SK-MEL-28 melanoma
[3] = tested on: HOP-92 NSCLC
[4] = tested on: SF-295 CNS
[5] = tested on: MOLT-4 leukemia
[6] = tested on: RPMI-8226 leukemia
[7] = tested on: M14 melanoma
[8] = tested on: HCC-2998 colon
[9] = tested on: MALME-3M melanoma
[10] = tested on: MCF7 breast

`N/C(=C\c1ccc(/C=C(\NC(=O)c2ccccc2)c2nc3c([nH]2)C(=O)c2ccccc2C3=O)cc1)c1nc2c([nH]1)C(=O)c1ccccc1C2=O` gave a TGI [1] of 32.4 µM, a TGI [2] of 31.3 µM and a TGI [3] of 22.2 µM. The TGI [4] was 30.9 µM, the TGI [5] was 29.3 µM and the TGI [6] was 26.1 µM. For the same compound, the TGI [7] was 30.4 µM.

For `COc1ccc2c(c1)C(=O)c1c-2n(CCCN=[N+]=[N-])c(=O)c2cc([N+](=O)[O-])ccc12`, the GI50 [1] was 2.82 µM, the TGI [1] was over 100 µM and the GI50 [2] was 15.1 µM. It also gave a TGI [2] of over 100 µM, a GI50 [8] of 0.013 µM and a GI50 [9] of 0.422 µM. For the same compound, the TGI [9] was 9.88 µM, the GI50 [3] was 0.0646 µM and the GI50 [10] was under 0.001 µM. For the same compound, the TGI [10] was 4.83 µM, the GI50 [4] was 0.033 µM and the TGI [4] was 0.222 µM and 0.529 µM. For the same compound, the GI50 [5] was under 0.001 µM, the GI50 [6] was 0.0128 µM and 0.0101 µM and the TGI [6] was 0.264 µM and 1.35 µM. For the same compound, the TGI [7] was 1.3 µM.

`CCOC(=O)NC(=O)c1cn(CCN(CCO)C(=O)NCCCCCCNC(=O)N(CCO)CCn2cc(C(=O)NC(=O)OCC)c(=O)[nH]c2=O)c(=O)[nH]c1=O` gave a TGI [1] of over 100 µM, a TGI [2] of over 100 µM and a TGI [8] of over 100 µM. The TGI [9] was over 100 µM, the TGI [3] was over 100 µM and the TGI [10] was over 100 µM. It also gave a TGI [4] of over 100 µM, a TGI [5] of over 100 µM and a TGI [6] of over 100 µM.

`COc1cc2c(c(OC)c1OC)-c1ccc(OC)c(=O)cc1C(NC(=O)CCCCCNc1ccc(N=[N+]=[N-])cc1[N+](=O)[O-])CC2` (stereo unspecified) was tested, and the TGI [1] was under 0.01 µM, the TGI [2] was 25 µM and the TGI [9] was 26.1 µM. It also gave a TGI [10] of over 21.6 µM, a TGI [4] of 12.5 µM and a TGI [5] of under 0.01 µM. It also gave a TGI [6] of under 0.01 µM and a TGI [7] of 5.44 µM.

In the case of `COc1cc(-c2n/c(=C\c3c(O)[nH]c4ccccc34)cc3c2=Nc2ccccc2-3)ccc1F`, the GI50 [1] is reported as 4.02 µM, the TGI [1] is reported as 16.1 µM and the GI50 [2] is reported as 6.2 µM. For the same compound, the TGI [2] was 22.6 µM, the GI50 [8] was 4.32 µM and the TGI [8] was over 100 µM. For the same compound, the GI50 [9] was 4.38 µM, the TGI [9] was 23.2 µM and the GI50 [3] was 3.29 µM. The TGI [3] was 19.9 µM, the GI50 [10] was 2.51 µM and the TGI [10] was over 100 µM. For the same compound, the GI50 [4] was 24.4 µM, the TGI [4] was over 100 µM and the GI50 [5] was 9.61 µM. It also gave a TGI [5] of 97.9 µM, a GI50 [6] of 17.5 µM and a TGI [6] of over 100 µM. It also gave a GI50 [7] of 5.2 µM and a TGI [7] of 22.3 µM.

Work on `COc1nc2ccc(Cl)c(C(O)c3ccccc3)c2nc1OC` (stereo unspecified) yielded a TGI [1] of over 100 µM, a TGI [2] of over 100 µM and a TGI [9] of over 100 µM. It also gave a TGI [3] of 60.6 µM, a TGI [10] of 87.6 µM and a TGI [4] of 44.8 µM. The TGI [5] was 46.4 µM, the TGI [6] was 34.1 µM and the TGI [7] was 38.8 µM.

Work on `CCCC[n+]1ccn(-c2nc3ccccc3n2C)c1` yielded a TGI [1] of over 100 µM, a TGI [8] of over 100 µM and a TGI [9] of over 100 µM. The TGI [4] was over 100 µM, the TGI [5] was over 100 µM and the TGI [6] was over 100 µM. For the same compound, the TGI [7] was over 100 µM.

Compound `COc1cc(/C=C2\C(=O)Nc3ccc(Cl)cc32)cc(OC)c1OC` has a GI50 [1] of 6.71 µM, a TGI [1] of over 100 µM and a GI50 [2] of over 100 µM. For the same compound, the TGI [2] was over 100 µM, the GI50 [8] was 5.82 µM and the TGI [8] was 61.2 µM. It also gave a GI50 [9] of 32 µM, a TGI [9] of over 100 µM and a GI50 [3] of 3.39 µM. The TGI [3] was 22.9 µM, the GI50 [10] was 26 µM and the TGI [10] was over 100 µM. The GI50 [4] was 78.2 µM, the TGI [4] was over 100 µM and the GI50 [5] was 75.1 µM. For the same compound, the TGI [5] was over 100 µM, the GI50 [6] was 3.9 µM and the TGI [6] was over 100 µM.

`N#C[S-].[Ce+3].c1ccc(-c2ccccn2)nc1.c1ccc(-c2ccccn2)nc1.c1ccc(-c2ccccn2)nc1` was tested, and the GI50 [1] was 10.6 µM, the TGI [1] was over 100 µM and the GI50 [2] was 15.3 µM. The TGI [2] was over 100 µM, the GI50 [8] was 18.3 µM and the TGI [8] was over 100 µM. It also gave a GI50 [9] of 23 µM, a TGI [9] of 60.7 µM and a GI50 [4] of 4.72 µM. For the same compound, the TGI [4] was 49 µM, the GI50 [7] was 6.24 µM and the TGI [7] was 24.7 µM.
